Patent US6677302B2, “Compositions and methods for the treatment of viral disorders” (The Trustees of Boston University, priority 1996, dated 2004)
Where two headings read alike, the source gives them in different places. Marks after values point to notes of the source that are not given here.

Columns and labels:
K562 = assay: DNA fragmentation by flow cytometry; assay type: cell-based, human; settings: FIGS. 4 and 5
From the text: It has been shown that sodium butyrate can induce apoptosis in human tumors or tumor cell lines (L. A. Noorduyn et al., Histopathology 21:59, 1992).

[1] = test system: A549 (non-small cell cancer); assay: Survival fraction after 72 hours exposure (MTT assay); assay type: cell-based, human
Procedure: (§1) Growth inhibition was measured by the MTT assay. […] PC-3=prostate cancer; A549=non-small cell cancer; OvCar=ovarian cancer; CaCo=colon cancer; MCF-7=breast cancer; and SW900=non-small cell lung cancer.

CaCo (colon cancer) = assay: as above; assay type: cell-based, human; settings: 72 hour
Procedure: as §1

[2] = test system: SW900 (non-small cell lung cancer); assay: as above; assay type: cell-based, human
Procedure: (§2) Growth inhibition was measured by the MTT assay. Survival fraction is calculated from at least 3 experiments, and differences in survival fraction are statistically significant P<0.05, using the Paired Two-Sample For Means T-Test. […] PC-3=prostate cancer; A549=non-small cell cancer; OvCar=ovarian cancer; CaCo=colon cancer; MCF-7=breast cancer; and SW900=non-small cell lung cancer.

MCF-7 (breast cancer) = assay: as above; assay type: cell-based, human
Procedure: as §2

PC-3 (prostate cancer) = assay: as above; assay type: cell-based, human
Procedure: as §2

OvCar (ovarian cancer) = assay: as above; assay type: cell-based, human
Procedure: as §2

[3] = test system: post-transplant EBV-induced lymphomas; assay: Compassionate treatment of post-transplant EBV-induced lymphomas; assay type: in vivo, human; settings: patient one; GCV for 2 weeks before arginine butyrate
From the text: Finally, two patients with post-transplant EBV-induced lymphomas have been treated on a compassionate basis with IRB approval. Each patient is summarized below.
Patient one was a person, 2 months post lung transplant. They were receiving cyclosporin to prevent impending rejection. They developed massive lymphadenopathy in mediastinum and hilum, with progressive respiratory failure. They were biopsy positive for EBV, and the tumor cells were monoclonal and of donor origin.
They had been off all therapy, except ganciclovir, for 3 weeks when they started arginine butyrate at 1,000 mg/kg/day. […] They eventually died from Aspergillus infection.
The second patient was a person, 4 months post-allogeneic bone marrow transplant for leukemia. They were receiving cyclosporin to prevent rejection. They developed cervical, mediastinal and abdominal lymphadenopathy, with brain metastases. A biopsy was positive for EBV and tumor cells were monoclonal confirming the diagnosis of LPD.
They had been treated with and had no response to XRT, CHOP, or α-IFN plus gamma globulin. They had been off all therapy for 2 weeks and was cachectic, too weak to ambulate, paraplegic, in constant pain and had been admitted for terminal care, when they started arginine butyrate at 1,000 mg/kg/day and ganciclovir.

[4] = test system: EBV+ and EBV− cell lines (X50-7, Akata, HPB-ALL, Nalm-6); assay: Growth of EBV+ and EBV− cell lines; assay type: cell-based, human; settings: both EBV+ and EBV− cell lines
From the text: In some experiments sodium was used instead of arginine to neutralize butyric acid. […] Cell lines used were X50-7, a latent EBV+ B-cell lymphoma; Akata, a producer EBV+ Burkitt's lymphoma; HPB-ALL, a T-cell line; and Nalm-6, an EBV− B-cell line. Growth curves for X50-7 cells in different concentrations of sodium butyrate are shown in FIG. 8b and the growth curves for HPB-ALL cells in different concentrations of sodium butyrate are shown in FIG. 8c.

Erythroleukemia (K562) = assay: MIC on cell proliferation, 7 days in culture; assay type: cell-based, human
Procedure: (§3) The ability of arginine butyrate to induce differentiation has been evaluated and is measured by inhibition of growth, in some of the neoplastic cell types previously reported to be sensitive to (sodium) butyric acid, and found arginine butyrate to be as potent as butyric acid. We have also extended that work to additional cell types and found Arginine Butyrate to induce differentiation in these new cell types. Table 1 lists the cell types tested and the minimum inhibitory concentration (MIC) of sodium butyrate (NaB) and arginine butyrate (ArgB) on these cell lines. The MIC is the lowest dose that prevents all growth over the 7 days that the cells are maintained in culture, that is the minimum dose that prevents an increase in cell number. […] The […] of ArgB and NaB were equivalent on all cell lines tested.

Rhabdomyosarcoma = assay: MIC on cell proliferation, 7 days in culture; assay type: cell-based, human
Procedure: as §3

Myeloid Leukemia (HL60) = assay: MIC on cell proliferation, 7 days in culture; assay type: cell-based, human
Procedure: as §3

[5] = test system: Colonic Adenocarcinoma (HT29); assay: MIC on cell proliferation, 7 days in culture; assay type: cell-based, human
Procedure: as §3

Gastric Carcinoma (AGS) = assay: MIC on cell proliferation, 7 days in culture; assay type: cell-based, human
Procedure: as §3

Osteosarcoma (HOS) = assay: MIC on cell proliferation, 7 days in culture; assay type: cell-based, human
Procedure: as §3

Choriocarcinoma (JAR) = assay: MIC on cell proliferation, 7 days in culture; assay type: cell-based, human
Procedure: as §3

[6] = Clinical toxicity in patients; assay type: in vivo, human; settings: adults; IV infusion of similar doses
Procedure: Clinical experience with butyrates have been performed in children with acute myelogenous leukemia in Israel, and in children with neuroblastoma (K. Prasad, Life Sci. 27:1351-58, 1980). […] Eleven pediatric patients and twelve adults with β-hemoglobinopathies were treated with IV arginine butyrate at a starting dose of 500 mg/kg/day for 2-7 weeks. If no side effects were noted, the rate was increased by 250 mg/kg/day to a final rate of 1500 mg/kg/day in 4 patients, and 2000 mg/kg/day in 2 patients. […] This rise in BUN returned to normal within 12 hours of discontinuation of drug, and is thought to be secondary to effect of arginine upon ureagenesis. […] Peak serum levels of butyrate ranged between 0.04-0.05 mM, and butyrate was not detectable 15 minutes after infusion was discontinued. Plasma arginine levels were also rapidly cleared, with a T1/2 of 15 minutes, and baseline arginine levels were reached within 12 hours after discontinuation of infusion.
Three patients with refractory neoplasms (breast, melanoma, adenocarcinoma, of unknown primary) have been enrolled and completed 1-2 cycles of arginine butyrate as a dose of 500 mg/kg/day over 6-8 hours for 10 days.
Three patients (with breast cancer, bowel cancer or Hodgkins disease) have completed two cycles of arginine butyrate at a dose of 750 mg/kg/day for 10 days. […] Otherwise, there was no other objective measures of organ progressed after treatment was topped. […] There was a further resolution of the disease during the second cycle. Disease progression was noted one month after second cycle was completed. At 1000 mg/kg/day, 3 patients have been enrolled on study.
An inter-group dose-escalation study is being conducted in patients with refractory malignancies. There are 3 patients per group with the dose levels starting at 500 mg/kg/day, and increasing by 250 mg/kg/day per group, if toxicity permits. Doses are given by 8 hour IV infusion, daily, for 5 days times 2 weeks, with weekends off, for a total of 10 days of treatment per cycle.

[7] = test system: Fibroblasts (normal human); assay: MIC on cell proliferation, 7 days in culture; assay type: cell-based; settings: lowest dose that prevents all growth over 7 days
Procedure: as §3

[8] = test system: Fibroblasts (mouse BALB/c-3T3); assay: MIC on cell proliferation, 7 days in culture; assay type: cell-based
Procedure: as §3

[9] = children with acute myelogenous leukemia or neuroblastoma; 0.5-1.5 g/kg/day for 14 days and 10 g/kg/day IV; cited from earlier work
breast and colon lines = assay: Enhancement of cytotoxicity of other chemotherapeutic agents by arginine butyrate; settings: evaluated with arginine butyrate
From the text: Other chemotherapeutic agents with non-overlapping mechanisms of antiproliferative activity such as 5-fluorouracil, taxol and interferon alpha have been evaluated with arginine butyrate.

[10] = Table 4, 0.1 A (0.1 μg/ml), 72 hour
[11] = Table 4, 0.5 A (0.5 μg/ml), 72 hour
[12] = Table 3, 1 CP (1.0 μg/ml), 72 hours
[13] = Table 3, 2 CP (2.0 μg/ml), 72 hours

## COc1cccc2c1C(=O)c1c(O)c3c(c(O)c1C2=O)C[C@@](O)(C(=O)CO)C[C@@H]3O[C@H]1C[C@H](N)[C@H](O)[C@H](C)O1 [A, adriamycin]
K562
  apoptotic activity on addition of arginine butyrate: increased their apoptotic activity
[1]; [10]
  Survival Fraction: 0.59*
[1]; [11]
  Survival Fraction: 0.59*
CaCo (colon cancer); Table 4, 0.1 A (0.1 μg/ml)
  Survival Fraction: 0.68*
CaCo (colon cancer); Table 4, 0.5 A (0.5 μg/ml)
  Survival Fraction: 0.62*
[2]; Table 4, 0.1 A (0.1 μg/ml)
  Survival Fraction: 0.82*
[2]; Table 4, 0.5 A (0.5 μg/ml)
  Survival Fraction: 0.76*
MCF-7 (breast cancer); Table 4, 0.1 A (0.1 μg/ml)
  Survival Fraction: 0.73*
MCF-7 (breast cancer); Table 4, 0.5 A (0.5 μg/ml)
  Survival Fraction: 0.69*
PC-3 (prostate cancer); [10]
  Survival Fraction: 0.72*
PC-3 (prostate cancer); [11]
  Survival Fraction: 0.68*
OvCar (ovarian cancer); [10]
  Survival Fraction: 0.83*
OvCar (ovarian cancer); [11]
  Survival Fraction: 0.81*

## N.N.[Cl][Pt][Cl] [CP, cisplatin]
[1]; [12]
  Survival Fraction: 0.77*
[1]; [13]
  Survival Fraction: 0.54*
PC-3 (prostate cancer); [12]
  Survival Fraction: 0.92
PC-3 (prostate cancer); [13]
  Survival Fraction: 0.49*
OvCar (ovarian cancer); [12]
  Survival Fraction: 0.91
OvCar (ovarian cancer); [13]
  Survival Fraction: 0.45*

## Nc1nc(O)c2ncn(COC(CO)CO)c2n1 [GCV, ganciclovir, reference compound]
[3]
  tumor response: showed no response
[4]
  levels generally cytocidal: above 30 μM

## CCCC(=O)[O-].[Na+] [NaB, sodium butyrate, reference compound]
Erythroleukemia (K562)
  MIC: >5,000 μM
Rhabdomyosarcoma
  MIC: 156 µM
Myeloid Leukemia (HL60)
  MIC: 78 µM
[5]
  MIC: 2,000 μM
Gastric Carcinoma (AGS)
  MIC: 2,000 μM
Osteosarcoma (HOS)
  MIC: 312 µM
Choriocarcinoma (JAR)
  MIC: 156 µM
[6]
  toxic side effects: no toxic side effects
[7]
  MIC: >5,000 μM
[8]
  MIC: >5,000 μM
[9]
  toxic side effects: without toxic side effects

## CC[C@@]1(O)C(=O)OCc2c1cc1n(c2=O)Cc2cc3ccccc3nc2-1 [camptothecin]
K562
  apoptotic activity on addition of arginine butyrate: increased their apoptotic activity

## C[C@@H]1C[C@@H]([C@H](O)CC2CC(=O)NC(=O)C2)C(=O)[C@@H](C)C1 [cyclohexamide]
K562
  apoptotic activity on addition of arginine butyrate: increased their apoptotic activity

## O=P1(N(CCCl)CCCl)NCCCO1 (stereo not shown) [cyclophosphamide]
K562
  apoptotic activity on addition of arginine butyrate: Lack of enhancement

## COc1cc([C@@H]2c3cc4c(cc3[C@@H](O[C@@H]3O[C@@H]5CO[C@@H](C)O[C@H]5[C@H](O)[C@H]3O)[C@H]3COC(=O)[C@H]23)OCO4)cc(OC)c1O [etoposide]
K562
  apoptotic activity on addition of arginine butyrate: increased their apoptotic activity

## CC(=O)O[C@H]1C(=O)[C@@]2(C)[C@H]([C@H](OC(=O)c3ccccc3)[C@]3(O)C[C@H](OC(=O)[C@H](O)[C@@H](NC(=O)c4ccccc4)c4ccccc4)C(C)=C1C3(C)C)[C@]1(OC(C)=O)CO[C@@H]1C[C@@H]2O [taxol]
Breast and colon lines
  concentration of agent at which enhancement of cytotoxicity was observed: exceeding 10 mM
